PubChem BioAssay (NCI)
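Assay format: 96-well plates, 48-hour exposure. At the TGI there is no net growth.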

Legend:
Experiment in all cases: DTP human tumour cell line panel, 48 h
786-0 renal = tested on: 786-0 renal
A549 NSCLC = tested on: A549 NSCLC
ACHN renal = tested on: ACHN renal
CAKI-1 renal = tested on: CAKI-1 renal
CCRF-CEM leukemia = tested on: CCRF-CEM leukemia
COLO 205 colon = tested on: COLO 205 colon
DU-145 prostate = tested on: DU-145 prostate
EKVX NSCLC = tested on: EKVX NSCLC
HCC-2998 colon = tested on: HCC-2998 colon
HCT-116 colon = tested on: HCT-116 colon
HCT-15 colon = tested on: HCT-15 colon
HL-60(TB) leukemia = tested on: HL-60(TB) leukemia
HOP-62 NSCLC = tested on: HOP-62 NSCLC
HOP-92 NSCLC = tested on: HOP-92 NSCLC
HS 578T breast = tested on: HS 578T breast
HT29 colon = tested on: HT29 colon
IGROV1 ovarian = tested on: IGROV1 ovarian
K-562 leukemia = tested on: K-562 leukemia
KM12 colon = tested on: KM12 colon
LOX IMVI melanoma = tested on: LOX IMVI melanoma
M14 melanoma = tested on: M14 melanoma
MALME-3M melanoma = tested on: MALME-3M melanoma
MCF7 breast = tested on: MCF7 breast
MDA-MB-231 breast = tested on: MDA-MB-231 breast
MDA-MB-435 = tested on: MDA-MB-435
MOLT-4 leukemia = tested on: MOLT-4 leukemia
NCI-H226 lung = tested on: NCI-H226 lung
NCI-H23 lung = tested on: NCI-H23 lung
NCI-H460 lung = tested on: NCI-H460 lung
NCI-H522 lung = tested on: NCI-H522 lung
NCI/ADR-RES ovarian = tested on: NCI/ADR-RES ovarian
OVCAR-3 ovarian = tested on: OVCAR-3 ovarian
OVCAR-4 ovarian = tested on: OVCAR-4 ovarian
OVCAR-5 ovarian = tested on: OVCAR-5 ovarian
OVCAR-8 ovarian = tested on: OVCAR-8 ovarian
PC-3 prostate = tested on: PC-3 prostate
RXF 393 renal = tested on: RXF 393 renal
SF-268 CNS = tested on: SF-268 CNS
SF-295 CNS = tested on: SF-295 CNS
SF-539 CNS = tested on: SF-539 CNS
SK-MEL-2 melanoma = tested on: SK-MEL-2 melanoma
SK-MEL-28 melanoma = tested on: SK-MEL-28 melanoma
SK-MEL-5 melanoma = tested on: SK-MEL-5 melanoma
SK-OV-3 ovarian = tested on: SK-OV-3 ovarian
SN12C renal = tested on: SN12C renal
SNB-19 CNS = tested on: SNB-19 CNS
SNB-75 CNS = tested on: SNB-75 CNS
SR leukemia = tested on: SR leukemia
SW-620 colon = tested on: SW-620 colon
T-47D breast = tested on: T-47D breast
TK-10 renal = tested on: TK-10 renal
U251 CNS = tested on: U251 CNS
UACC-257 melanoma = tested on: UACC-257 melanoma
UACC-62 melanoma = tested on: UACC-62 melanoma
UO-31 renal = tested on: UO-31 renal
A498 renal = tested on: A498 renal
BT-549 breast = tested on: BT-549 breast
RPMI-8226 leukemia = tested on: RPMI-8226 leukemia

Structure (SMILES): C/C(=C\COP(=O)(O)OP(=O)(O)O)CC/C=C(\C)CNc1c(F)c(F)c(F)c(F)c1F
- TGI (786-0 renal): > 100 µM
- TGI (A549 NSCLC): > 100 µM
- TGI (ACHN renal): > 100 µM
- TGI (CAKI-1 renal): > 100 µM
- TGI (CCRF-CEM leukemia): 1.26 µM
- TGI (COLO 205 colon): > 100 µM
- TGI (DU-145 prostate): > 100 µM
- TGI (EKVX NSCLC): > 100 µM
- TGI (HCC-2998 colon): > 100 µM
- TGI (HCT-116 colon): > 100 µM
- TGI (HCT-15 colon): > 100 µM
- TGI (HL-60(TB) leukemia): > 100 µM
- TGI (HOP-62 NSCLC): > 100 µM
- TGI (HOP-92 NSCLC): > 100 µM
- TGI (HS 578T breast): > 100 µM
- TGI (HT29 colon): > 100 µM
- TGI (IGROV1 ovarian): > 100 µM
- TGI (K-562 leukemia): > 100 µM
- TGI (KM12 colon): > 100 µM
- TGI (LOX IMVI melanoma): > 100 µM
- TGI (M14 melanoma): > 100 µM
- TGI (MALME-3M melanoma): > 100 µM
- TGI (MCF7 breast): > 100 µM
- TGI (MDA-MB-231 breast): > 100 µM
- TGI (MDA-MB-435): > 100 µM
- TGI (MOLT-4 leukemia): > 100 µM
- TGI (NCI-H226 lung): > 100 µM
- TGI (NCI-H23 lung): > 100 µM
- TGI (NCI-H460 lung): > 100 µM
- TGI (NCI-H522 lung): > 100 µM
- TGI (NCI/ADR-RES ovarian): > 100 µM
- TGI (OVCAR-3 ovarian): > 100 µM
- TGI (OVCAR-4 ovarian): > 100 µM
- TGI (OVCAR-5 ovarian): > 100 µM
- TGI (OVCAR-8 ovarian): > 100 µM
- TGI (PC-3 prostate): > 100 µM
- TGI (RXF 393 renal): > 100 µM
- TGI (SF-268 CNS): > 100 µM
- TGI (SF-295 CNS): > 100 µM
- TGI (SF-539 CNS): > 100 µM
- TGI (SK-MEL-2 melanoma): > 100 µM
- TGI (SK-MEL-28 melanoma): > 100 µM
- TGI (SK-MEL-5 melanoma): > 100 µM
- TGI (SK-OV-3 ovarian): > 100 µM
- TGI (SN12C renal): > 100 µM
- TGI (SNB-19 CNS): > 100 µM
- TGI (SNB-75 CNS): > 31.6 µM
- TGI (SR leukemia): 0.308 µM
- TGI (SW-620 colon): > 100 µM
- TGI (T-47D breast): > 100 µM
- TGI (TK-10 renal): > 100 µM
- TGI (U251 CNS): > 100 µM
- TGI (UACC-257 melanoma): > 100 µM
- TGI (UACC-62 melanoma): > 100 µM
- TGI (UO-31 renal): > 100 µM

Structure (SMILES): COc1cc2c(c(O)c1OC)C(O)C1CCC(=O)N1C2c1ccc2c(c1)OCO2 (centres undefined)
- TGI (786-0 renal): > 100 µM
- TGI (A498 renal): > 100 µM
- TGI (A549 NSCLC): > 100 µM
- TGI (ACHN renal): > 100 µM
- TGI (BT-549 breast): > 100 µM
- TGI (CAKI-1 renal): > 100 µM
- TGI (CCRF-CEM leukemia): > 100 µM
- TGI (COLO 205 colon): > 100 µM
- TGI (DU-145 prostate): > 100 µM
- TGI (EKVX NSCLC): > 100 µM
- TGI (HCC-2998 colon): > 100 µM
- TGI (HCT-116 colon): > 100 µM
- TGI (HCT-15 colon): > 100 µM
- TGI (HL-60(TB) leukemia): > 100 µM
- TGI (HOP-62 NSCLC): > 100 µM
- TGI (HOP-92 NSCLC): > 100 µM
- TGI (HT29 colon): > 100 µM
- TGI (IGROV1 ovarian): > 100 µM
- TGI (K-562 leukemia): > 100 µM
- TGI (KM12 colon): > 100 µM
- TGI (LOX IMVI melanoma): > 100 µM
- TGI (M14 melanoma): > 100 µM
- TGI (MALME-3M melanoma): > 100 µM
- TGI (MCF7 breast): > 100 µM
- TGI (MDA-MB-231 breast): > 100 µM
- TGI (MDA-MB-435): > 100 µM
- TGI (MOLT-4 leukemia): > 100 µM
- TGI (NCI-H226 lung): > 100 µM
- TGI (NCI-H23 lung): > 100 µM
- TGI (NCI-H460 lung): > 100 µM
- TGI (NCI-H522 lung): > 100 µM
- TGI (NCI/ADR-RES ovarian): > 100 µM
- TGI (OVCAR-3 ovarian): > 100 µM
- TGI (OVCAR-4 ovarian): > 100 µM
- TGI (OVCAR-5 ovarian): > 100 µM
- TGI (OVCAR-8 ovarian): > 100 µM
- TGI (PC-3 prostate): > 100 µM
- TGI (RXF 393 renal): > 100 µM
- TGI (SF-268 CNS): > 100 µM
- TGI (SF-295 CNS): > 100 µM
- TGI (SF-539 CNS): > 100 µM
- TGI (SK-MEL-28 melanoma): > 100 µM
- TGI (SK-OV-3 ovarian): > 100 µM
- TGI (SN12C renal): > 100 µM
- TGI (SNB-19 CNS): > 100 µM
- TGI (SNB-75 CNS): > 100 µM
- TGI (SR leukemia): > 100 µM
- TGI (SW-620 colon): > 100 µM
- TGI (T-47D breast): > 100 µM
- TGI (TK-10 renal): > 100 µM
- TGI (U251 CNS): > 100 µM
- TGI (UACC-257 melanoma): > 100 µM
- TGI (UACC-62 melanoma): > 100 µM
- TGI (UO-31 renal): > 100 µM

Structure (SMILES): Cc1ccc(-c2ccc3c(c2)Sc2ccccc2O3)n1C
- TGI (786-0 renal): > 100 µM
- TGI (A498 renal): 34 µM
- TGI (A549 NSCLC): > 100 µM
- TGI (ACHN renal): > 100 µM
- TGI (CAKI-1 renal): > 73.1 µM
- TGI (CCRF-CEM leukemia): 3.95 µM
- TGI (COLO 205 colon): 2.12 µM
- TGI (DU-145 prostate): > 41.5 µM
- TGI (EKVX NSCLC): > 88.3 µM
- TGI (HCC-2998 colon): 0.625 µM
- TGI (HCT-116 colon): > 100 µM
- TGI (HCT-15 colon): > 100 µM
- TGI (HL-60(TB) leukemia): 0.261 µM
- TGI (HOP-62 NSCLC): > 100 µM
- TGI (HOP-92 NSCLC): > 100 µM
- TGI (HS 578T breast): > 100 µM
- TGI (IGROV1 ovarian): 1.2 µM
- TGI (K-562 leukemia): > 100 µM
- TGI (KM12 colon): > 43.2 µM
- TGI (LOX IMVI melanoma): > 100 µM
- TGI (M14 melanoma): > 65.4 µM
- TGI (MALME-3M melanoma): 50 µM
- TGI (MDA-MB-231 breast): > 100 µM
- TGI (MOLT-4 leukemia): > 67.8 µM
- TGI (NCI-H226 lung): > 100 µM
- TGI (NCI-H23 lung): > 100 µM
- TGI (NCI-H460 lung): > 36.5 µM
- TGI (NCI-H522 lung): 0.373 µM
- TGI (NCI/ADR-RES ovarian): 12.6 µM
- TGI (OVCAR-3 ovarian): > 100 µM
- TGI (OVCAR-4 ovarian): > 100 µM
- TGI (OVCAR-5 ovarian): > 52.9 µM
- TGI (OVCAR-8 ovarian): > 100 µM
- TGI (RPMI-8226 leukemia): 0.706 µM
- TGI (RXF 393 renal): 11.4 µM
- TGI (SF-268 CNS): > 33.9 µM
- TGI (SF-295 CNS): 0.799 µM
- TGI (SK-MEL-2 melanoma): 4.26 µM
- TGI (SK-MEL-28 melanoma): > 100 µM
- TGI (SK-MEL-5 melanoma): 39.1 µM
- TGI (SK-OV-3 ovarian): > 100 µM
- TGI (SN12C renal): 7.88 µM
- TGI (SNB-19 CNS): > 100 µM
- TGI (SR leukemia): > 100 µM
- TGI (SW-620 colon): > 100 µM
- TGI (T-47D breast): > 100 µM
- TGI (TK-10 renal): > 100 µM
- TGI (U251 CNS): > 100 µM
- TGI (UACC-257 melanoma): > 100 µM
- TGI (UO-31 renal): > 68.5 µM
